In PubChem BioAssay AID1963869 (Molecular Pharmacology Branch, DTP, NCI, 2024):

Tested on: KRAS patient-derived spheroids with HUVEC/MSC, viability
Assay: Anticancer human tumor 323965-272-R-J2-PDC patient-derived pancreatic carcinoma cell line growth inhibition [KRAS2]
Settings: for viability, T/C: stronger effect = lower value
Summary of the method: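 Combination screen of spheroid viability in tumor-cell co-cultures with endothelial (HUVEC) and mesenchymal stem cell stroma. Each agent was tested in half-log dilutions, topping at clinical Cmax or at 10 microM without a known Cmax.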

[1] = curve of first compound, second compound 0.1 µM
[2] = curve of first compound, second compound 0.316 µM
[3] = curve of first compound, second compound 1 µM
[4] = curve of first compound, second compound 3.16 µM
[5] = second compound 0.1 µM, first compound 0.000316 µM
[6] = second compound 0.1 µM, first compound 0.001 µM
[7] = second compound 0.1 µM, first compound 0.00316 µM
[8] = second compound 0.1 µM, first compound 0.01 µM
[9] = second compound 0.1 µM, first compound 0.0316 µM
[10] = second compound 0.316 µM, first compound 0.000316 µM
[11] = second compound 0.316 µM, first compound 0.001 µM
[12] = second compound 0.316 µM, first compound 0.00316 µM
[13] = second compound 0.316 µM, first compound 0.01 µM
[14] = second compound 0.316 µM, first compound 0.0316 µM
[15] = second compound 1 µM, first compound 0.000316 µM
[16] = second compound 1 µM, first compound 0.001 µM
[17] = second compound 1 µM, first compound 0.00316 µM
[18] = second compound 1 µM, first compound 0.01 µM
[19] = second compound 1 µM, first compound 0.0316 µM
[20] = second compound 3.16 µM, first compound 0.000316 µM
[21] = second compound 3.16 µM, first compound 0.001 µM
[22] = second compound 3.16 µM, first compound 0.00316 µM
[23] = second compound 3.16 µM, first compound 0.01 µM
[24] = second compound 3.16 µM, first compound 0.0316 µM
[25] = curve of first compound, second compound 10 µM
[26] = second compound 0.1 µM, first compound 0.1 µM
[27] = second compound 0.316 µM, first compound 0.1 µM
[28] = second compound 1 µM, first compound 0.1 µM
[29] = second compound 3.16 µM, first compound 0.1 µM
[30] = second compound 10 µM, first compound 0.0316 µM
[31] = second compound 10 µM, first compound 0.1 µM
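Note: spheroids exposed to agents for 7 days.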
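Throughout, for viability, T/C: 100% = DMSO vehicle control viability.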

CC(=O)Nc1cccc(-n2c(=O)n(C3CC3)c(=O)c3c(Nc4ccc(I)cc4F)n(C)c(=O)c(C)c32)c1 + C=CC(=O)N1CCN(c2nc(OCC3CCCN3C)nc3c2CCN(c2cccc4cccc(C)c24)C3)CC1CC#N was tested, and the IC50 (curve of first compound, second compound 0.0316 µM) was 1.71 nM, the IC50 [1] was 0.644 nM and the IC50 [2] was 0.255 nM. The IC50 [3] was 0.361 nM, the IC50 [4] was < 0.1 nM and the viability, T/C (second compound 0.0316 µM, first compound 0.0001 µM) was 62.1%. The viability, T/C (second compound 0.0316 µM, first compound 0.000316 µM) was 63.8%, the viability, T/C (second compound 0.0316 µM, first compound 0.001 µM) was 53.4% and the viability, T/C (second compound 0.0316 µM, first compound 0.00316 µM) was 44%. It also gave a viability, T/C (second compound 0.0316 µM, first compound 0.01 µM) of 34.1%, a viability, T/C (second compound 0.0316 µM, first compound 0.0316 µM) of 23.9% and a viability, T/C (second compound 0.1 µM, first compound 0.0001 µM) of 64.4%. It also gave a viability, T/C [5] of 56.8%, a viability, T/C [6] of 46.8% and a viability, T/C [7] of 35.4%. For the same compound, the viability, T/C [8] was 32.1%, the viability, T/C [9] was 22.7% and the viability, T/C (second compound 0.316 µM, first compound 0.0001 µM) was 56.7%. For the same compound, the viability, T/C [10] was 46.6%, the viability, T/C [11] was 43.6% and the viability, T/C [12] was 31.6%. It also gave a viability, T/C [13] of 27.4%, a viability, T/C [14] of 18.8% and a viability, T/C (second compound 1 µM, first compound 0.0001 µM) of 56.6%. The viability, T/C [15] was 53.8%, the viability, T/C [16] was 40% and the viability, T/C [17] was 37.2%. The viability, T/C [18] was 28.3%, the viability, T/C [19] was 18.9% and the viability, T/C (second compound 3.16 µM, first compound 0.0001 µM) was 26%. For the same compound, the viability, T/C [20] was 28.5%, the viability, T/C [21] was 17% and the viability, T/C [22] was 22.4%. For the same compound, the viability, T/C [23] was 4.06% and the viability, T/C [24] was 5.52%.
With Cn1ncnc1[C@H]1c2n[nH]c(=O)c3cc(F)cc(c23)N[C@@H]1c1ccc(F)cc1 + C=CC(=O)N1CCN(c2nc(=O)n(-c3c(C)ccnc3C(C)C)c3nc(-c4c(O)cccc4F)c(F)cc23)C(C)C1 the IC50 [1] was > 100 nM, the IC50 [2] was > 100 nM and the IC50 [3] was > 100 nM. For the same compound, the IC50 [4] was > 100 nM, the IC50 [25] was 23.7 nM and the viability, T/C [5] was 59.7%. The viability, T/C [6] was 65.8%, the viability, T/C [7] was 58.8% and the viability, T/C [8] was 57.8%. For the same compound, the viability, T/C [9] was 58.9%, the viability, T/C [26] was 55.7% and the viability, T/C [10] was 63%. For the same compound, the viability, T/C [11] was 63.2%, the viability, T/C [12] was 61.2% and the viability, T/C [13] was 55%. It also gave a viability, T/C [14] of 64%, a viability, T/C [27] of 57.4% and a viability, T/C [15] of 72.5%. For the same compound, the viability, T/C [16] was 64.2%, the viability, T/C [17] was 68.3% and the viability, T/C [18] was 58.7%. The viability, T/C [19] was 63.9%, the viability, T/C [28] was 57% and the viability, T/C [20] was 63.6%. It also gave a viability, T/C [21] of 65.6%, a viability, T/C [22] of 63.5% and a viability, T/C [23] of 64.7%. It also gave a viability, T/C [24] of 67.3%, a viability, T/C [29] of 54.6% and a viability, T/C (second compound 10 µM, first compound 0.000316 µM) of 58.8%. It also gave a viability, T/C (second compound 10 µM, first compound 0.001 µM) of 62.7%, a viability, T/C (second compound 10 µM, first compound 0.00316 µM) of 57.4% and a viability, T/C (second compound 10 µM, first compound 0.01 µM) of 50.4%. The viability, T/C [30] was 50.9% and the viability, T/C [31] was 41.2%.
O=C(c1cc(Cc2n[nH]c(=O)c3ccccc23)ccc1F)N1CCN(C(=O)C2CC2)CC1 was tested, and the viability, T/C (compound 0.0316 µM) was 102% [middle of 5 runs], the viability, T/C (compound 0.1 µM) was 102% [middle of 5 runs] and the viability, T/C (compound 0.316 µM) was 96.4% [middle of 5 runs]. The viability, T/C (compound 1 µM) was 100% [middle of 5 runs], the viability, T/C (compound 3.16 µM) was 92.1% [middle of 5 runs] and the viability, T/C (compound 10 µM) was 59.7% [middle of 5 runs]. For the same compound, the IC50 (curve of compound) was > 10000 nM.
With CCNC(=O)CC1N=C(c2ccc(Cl)cc2)c2cc(OC)ccc2-n2c(C)nnc21 (configuration not stated) + COc1cc2nc(C)nc(NC(C)c3cc(N)cc(C(F)(F)F)c3)c2cc1OC1CCOC1 the IC50 [1] was 247 nM, the IC50 [2] was 246 nM and the IC50 [3] was 238 nM. It also gave an IC50 [4] of 189 nM, an IC50 [25] of 170 nM and a viability, T/C [9] of 80.3%. For the same compound, the viability, T/C [26] was 68.8%, the viability, T/C (second compound 0.1 µM, first compound 0.316 µM) was 44.2% and the viability, T/C (second compound 0.1 µM, first compound 1 µM) was 34.2%. The viability, T/C (second compound 0.1 µM, first compound 3.16 µM) was 30.3%, the viability, T/C (second compound 0.1 µM, first compound 10 µM) was 28.9% and the viability, T/C [14] was 69.8%. For the same compound, the viability, T/C [27] was 64.2%, the viability, T/C (second compound 0.316 µM, first compound 0.316 µM) was 45.4% and the viability, T/C (second compound 0.316 µM, first compound 1 µM) was 32.5%. The viability, T/C (second compound 0.316 µM, first compound 3.16 µM) was 26.8%, the viability, T/C (second compound 0.316 µM, first compound 10 µM) was 25.2% and the viability, T/C [19] was 76.3%. For the same compound, the viability, T/C [28] was 65.3%, the viability, T/C (second compound 1 µM, first compound 0.316 µM) was 44.8% and the viability, T/C (second compound 1 µM, first compound 1 µM) was 32%. The viability, T/C (second compound 1 µM, first compound 3.16 µM) was 30.2%, the viability, T/C (second compound 1 µM, first compound 10 µM) was 25.5% and the viability, T/C [24] was 74.5%. It also gave a viability, T/C [29] of 58.8%, a viability, T/C (second compound 3.16 µM, first compound 0.316 µM) of 43.9% and a viability, T/C (second compound 3.16 µM, first compound 1 µM) of 29.3%. The viability, T/C (second compound 3.16 µM, first compound 3.16 µM) was 26.2%, the viability, T/C (second compound 3.16 µM, first compound 10 µM) was 26.6% and the viability, T/C [30] was 72.8%. It also gave a viability, T/C [31] of 60.4%, a viability, T/C (second compound 10 µM, first compound 0.316 µM) of 37.7% and a viability, T/C (second compound 10 µM, first compound 1 µM) of 29%. The viability, T/C (second compound 10 µM, first compound 3.16 µM) was 28% and the viability, T/C (second compound 10 µM, first compound 10 µM) was 25.7%.
